Earlier results as cited in patent US12472272B2, “Radiolabelled compounds for diagnosis or treatment of prostate-specific membrane antigen- expressing cancer” (PROVINCIAL HEALTH SERVICES AUTHORITY, priority 2019, dated 2025).

Assays:
tumor = conditions: Kuo et al. 2018, cited from earlier work
[1] = tested on: metastatic prostate cancer; conditions: cited from earlier work

For O=C([O-])CN1CCN(CC(=O)[O-])CCN(CC(=O)NCC2CCC(C(=O)N[C@@H](Cc3ccc4ccccc4c3)C(=O)NCCCC[C@H](NC(=O)N[C@@H](CCC(=O)O)C(=O)O)C(=O)O)CC2)CCN(CC(=O)[O-])CC1.[177Lu+3] (stereo partly shown) [^177Lu-PSMA-617], the tumor uptake (tumor; 120 h post-injection) is listed as about 8 % ID/g, the peaked tumor uptake (tumor; reported previously) is listed as about 15 % ID/g and the complete response rate ([1]; human, in vivo) is listed as under 7%. For the same compound, the “patients with progressive disease after treatment” value ([1]; human, in vivo) was “up to 33%”, the side effects ([1]; human, in vivo) was “without severe side effects” and the “patients having >50% reduction in PSA levels” value ([1]; metastatic prostate cancer) was 32-60%. The objective response ([1]; phase 2 Australian study, patients with measurable nodal or visceral disease) was 82%.
